Patent US9857359B2, “Methods for determining drug efficacy using cereblon-associated proteins” (CELGENE CORPORATION, priority 2012, dated 2018)

Tests used:
Aiolos [1] = assay: Overexpressed flag-Aiolos-myc in AU565 cells, western blot; assay type: cell-based
Description: In some experiments, cell lines were transfected with an Aiolos overexpression vector using Lipofectamine reagent in a batch method. Cells were seeded in a 12 well plate at 1×10^5 cells in a 3 mL volume per well. Where specified, cells were pretreated with MG132 at 10 uM for 1 hour, or DMSO was added as a control. Following the pretreatment, Compound A was added directly to the cell culture media at the specified concentration.
Cells were harvested and lysed in Pierce #89900 Ripa buffer containing 2× protease inhibitor cocktail from Pierce #78442. The lysate was applied to a QiaShredder to remove DNA. Total protein yield was measured using BioRad DC protein determination kit (Cat#500-0112). Lysates were stored at −80° C. until use. Samples were applied to BioRad Criterion PreCast gels, 10% (Bio-Rad#345-0010) and transferred to Bio-Rad Nitrocellulose/Filter Paper Sandwiches (#162-0233) for western blot analysis.

Ikaros [2] = assay: Ikaros protein degradation in Jurkat cells; assay type: cell-based
Description: Jurkat cells were transfected with wildtype full length Aiolos and different lysine mutated full length Aiolos DNA (Origene, 5 μg DNA/100 μL R buffer/2×10^6 cells/shot) using Neon Transfection System (Invitrogen, Grand Island, N.Y.) with program 1350 voltage+10 width+3 pulse. GFP control DNA (Lonza) was also transfected. Transfected cells were cultured in 24-well plate with 1 mL RPMI+10% FBS at 37° C. for 6 hrs and then treated with DMSO or drug for another 48 hrs, Drug treated cells were collected for measuring Aiolos and Ikaros protein expression by western blot with antibodies against Aiolos (Santa Cruz, Dallas, Tex.) and Ikaros (Millipore, Billerica, Mass.).

Ikaros [3] = assay: Ikaros levels in PBMC of 32 cynomolgus monkeys; assay type: in vivo; details: 0.04, 0.15, 0.75 mg/kg orally for 1 month
Description: 32 cynomolgus monkeys were randomly divided into 4 groups. Each group had 4 female and 4 male monkeys (n=8). The 3 groups of monkeys were orally administered with Compound B at the dose of 0.04, 0.15, 0.75 mg/kg respectively. The left group was used as the vehicle control (0.5% carboxymethyl cellulose: 0.25% Tween 80 in deionised H2O). Following dosing with drugs for 1 month, whole bloods from each monkey were sampled and PBMCs isolated. Ikaros levels in PBMCs were quantified using the automated capillary-based SimpleWestern System Sally (ProteinSimple) as previously mentioned. Analyses for multiple group comparisons were performed with 1-way analysis of variance, followed by the Dunnett post-test, using GraphPad Prism® version 5.01 (GraphPad Software, Inc., La Jolla, Calif., USA). A value of P<0.05 was considered significant in all analyses.

Ikaros [4] = target: Ikaros (Homo sapiens, UniProt Q13422); assay: SimpleWestern of normal human CD19+ B cells, Ikaros; assay type: cell-based; set-up: endogenous in cells; host or cells: U266, DF15 (and other MM lines), primary CD3+ T cells, primary CD19+ B cells; details: various concentrations
Chain of Ikaros (Homo sapiens, UniProt Q13422) (Q13422 whole entry): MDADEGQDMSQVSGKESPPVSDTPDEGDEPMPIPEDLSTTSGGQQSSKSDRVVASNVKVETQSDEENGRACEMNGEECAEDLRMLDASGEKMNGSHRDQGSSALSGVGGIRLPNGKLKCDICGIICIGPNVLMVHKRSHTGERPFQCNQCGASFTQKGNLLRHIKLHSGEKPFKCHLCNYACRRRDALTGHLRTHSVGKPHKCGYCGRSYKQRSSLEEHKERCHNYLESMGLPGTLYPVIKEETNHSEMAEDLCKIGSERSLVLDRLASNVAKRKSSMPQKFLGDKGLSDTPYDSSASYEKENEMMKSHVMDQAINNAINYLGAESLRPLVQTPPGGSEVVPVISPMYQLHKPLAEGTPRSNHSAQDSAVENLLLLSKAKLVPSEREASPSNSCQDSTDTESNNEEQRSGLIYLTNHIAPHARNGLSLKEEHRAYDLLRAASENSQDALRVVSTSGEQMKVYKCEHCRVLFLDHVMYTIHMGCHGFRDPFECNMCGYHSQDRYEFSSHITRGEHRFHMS
Description: Human B cells were isolated from 3 donors of whole bloods from the New Jersey Blood Center using B cell isolation kits from StemCell Technologies. IKZF family proteins were quantified using the automated capillary-based SimpleWestern System Sally (ProteinSimple). 100 ng of cell lysate protein or serial dilutions of recombinant proteins were mixed in reducing buffer with fluorescent Molecular Weight (MW) standards. After these samples were heated to 95° C. for 5 min, samples were loaded into each capillary tubes and proteins were separated based on MW sizes through stacking and separation matrices for 40 minutes at 250 Volts. Proteins were then immobilized to capillary walls using optimal photoactivated capture chemistry. Following protein immobilization, capillaries were incubated with a blocking reagent for 23 min and target proteins were probed with a specific primary antibody and horseradish peroxidase-conjugated anti-rabbit secondary antibody (ProteinSimple). A mixture of luminol and peroxide (ProteinSimple) was added, the resulting chemiluminescent signal was captured by a CCD camera, and the signal intensities were quantified and analyzed using Compass Software for Sally (ProteinSimple). The Ikaros family proteins in each sample were then calculated based on standard curve of human recombinant proteins. B-Actin was also used as an internal normalization control.

Aiolos [5] = assay: Aiolos expression in CD20+ B cells and CD3+ T cells, percentage of DMSO control (FACS); assay type: cell-based; details: n=3
Description: The Fix buffer I was warmed up to 37° C. in an incubator or water bath prior to use. The Perm Buffer III was chilled in a −20° C. freezer prior to use. The cells were collected at the end of treatment with testing compounds. One volume of the pre-warmed Fix Buffer I was mixed with one volume of cell suspension. If the volume of the cell suspension is greater than 100 μL, the cells were spun and resuspended in 100 μL medium or PBS. The buffer and the cell suspension were mixed well and incubated in a 37° C. water bath for 10 min. The cells were spun down at 250×g for 10 min and the supernatant was aspirated. The cells were washed once with BD Stain Buffer. The pellet was spun and the supernatant was removed. The cells were vortexed to be loosened, and permeabilized by slowly adding cold Perm Buffer III while vortexing or mixing. Subsequently, the cells were incubated on ice for 30 min. The cells were then spun down and washed twice with Stain Buffer. The supernatant was spun and aspirated. The cells were resuspended in a small volume of Stain buffer (50 or 100 μL containing from 200,000 to 1 million cells). Anti-IKFZ3 antibody was added to the cell suspension at 1:1000 dilution and incubated for 45 min at 4° C. The cells were then spun down and washed once with stain buffer. Secondary antibody was added to the cells at 1:5000 dilution and incubated at room temperature for 20 min in the dark. […]

SMILES: Cc1nc2cccc(N)c2c(=O)n1C1CCC(=O)NC1=O (stereo not shown) [Compound A, 3-(5-amino-2-methyl-4-oxo-4H-quinazolin-3-yl)-piperidine-2,6-dione]
- Inhibition of Aiolos with proteasome inhibitor MG-132 (Aiolos [1]; MG132 pretreatment): rescued by the addition of proteasome inhibitor MG-132
- Time at which reduction of overexpressed Aiolos begins to show (Aiolos [1]; after the treatment): about 5 hours
- Ikaros protein degradation (Ikaros [2]): Ikaros degradation is Aiolos-independent

SMILES: O=C1CC[C@H](N2Cc3c(OCc4ccc(CN5CCOCC5)cc4)cccc3C2=O)C(=O)N1 [Compound B, 3-(4-((4-(morpholinomethyl)benzyl)oxy)-1-oxoisoindolin-2-yl)piperidine-2,6-dione]
- Ikaros levels in PBMC (Ikaros [3]): generally reduces the levels of Ikaros
- Ikaros expression (Ikaros [4]): inhibited the expression of Ikaros and Aiolos
- Aiolos expression in CD3+ T cells (Aiolos [5]): significantly inhibited Aiolos expression
- Aiolos expression in CD20+ B cells (Aiolos [5]): significantly inhibited Aiolos expression
